We go through six molecules from paper PMC4683934, “Effect of an ethanol extract of Descurainia sophia seeds on Phase I and II drug metabolizing enzymes and P-glycoprotein activity in vitro” (BMC Complementary and Alternative Medicine, 2015).

One data set has as its target T1, UGT1A1 (Homo sapiens, UniProt P22309).
T1 construct: purchased Promega V2120
T1 sequence (P22309 26-533): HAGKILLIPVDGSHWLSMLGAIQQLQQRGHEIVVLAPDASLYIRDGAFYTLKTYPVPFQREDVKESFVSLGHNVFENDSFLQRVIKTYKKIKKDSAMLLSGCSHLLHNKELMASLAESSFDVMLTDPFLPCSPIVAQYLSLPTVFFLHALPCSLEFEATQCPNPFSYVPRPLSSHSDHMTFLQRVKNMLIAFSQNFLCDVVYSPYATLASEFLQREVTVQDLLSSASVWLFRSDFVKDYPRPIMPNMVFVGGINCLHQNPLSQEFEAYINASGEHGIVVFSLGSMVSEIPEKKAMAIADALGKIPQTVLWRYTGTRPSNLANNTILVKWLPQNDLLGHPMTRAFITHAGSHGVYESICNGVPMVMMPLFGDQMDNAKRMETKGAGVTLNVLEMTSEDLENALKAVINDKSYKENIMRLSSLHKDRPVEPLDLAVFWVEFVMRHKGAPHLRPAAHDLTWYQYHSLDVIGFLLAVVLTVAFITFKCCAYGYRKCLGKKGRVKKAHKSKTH
Kind of data set: Luminogenic UGT1A1 inhibition assay. It counts as biochemical. Conditions: specific inhibitor positive control, means ± S.D., read-out: IC50 Inhibitors. From the text: In vitro enzymatic inhibition assays of human Phase I (CYPs) and Phase II (UGTs) DME, and P-gp were done with commercially available luminogenic assay systems. The assay systems were purchased from Promega (Madison, WI, USA), and the microsomes containing the recombinant human CYPs were purchased from Life Technologies (Carlsbad, CA, USA). The microsomes containing human UGT and P-gp were supplied in the luminogenic assay systems (Promega). […]. […]. The enzyme reaction was done according to the manufacturer’s instructions. The luminescent intensity, which is correlated with the enzyme activity, was quantified with a TriStar LB 941 multimode microplate reader (Berthold Technologies, Bad Wildbad, Germany). […]

Data set [1] concerns the target T2, P-gp (Homo sapiens, UniProt P08183).
T2 construct: purchased Promega V3601
Nature of the data set: Luminogenic P-gp (ATPase) inhibition assay. It counts as biochemical. The note with it: specific inhibitor positive control, means ± S.D., read-out: IC50 Inhibitors. The text has this: In vitro enzymatic inhibition assays of human Phase I (CYPs) and Phase II (UGTs) DME, and P-gp were done with commercially available luminogenic assay systems. The assay systems were purchased from Promega (Madison, WI, USA), and the microsomes containing the recombinant human CYPs were purchased from Life Technologies (Carlsbad, CA, USA). The microsomes containing human UGT and P-gp were supplied in the luminogenic assay systems (Promega). […] The enzyme reaction was done according to the manufacturer’s instructions.

A further data set concerns CYP2C. The note with it: competitive inhibitor; cited from earlier work.
The subject of data set [2] is LPS-stimulated RAW264.7 cells. Details: method as in PMID 23435946, PMID 23935669. The note with it: cited from earlier work.
In the next data set the test system is human UGT2B17. Details: method as in PMID 22958586. The note with it: cited from earlier work.
The next data set concerns UGT1A3. Details: method as in PMID 23339253. The note with it: cited from earlier work.
The target in data set [3] is T2, P-gp. The arrangement: method as in PMID 17256728. Conditions: adriamycin-resisitant human breast cancer cells, MCF-7/ADR; cited from earlier work.

T2 sequence (P08183 whole entry): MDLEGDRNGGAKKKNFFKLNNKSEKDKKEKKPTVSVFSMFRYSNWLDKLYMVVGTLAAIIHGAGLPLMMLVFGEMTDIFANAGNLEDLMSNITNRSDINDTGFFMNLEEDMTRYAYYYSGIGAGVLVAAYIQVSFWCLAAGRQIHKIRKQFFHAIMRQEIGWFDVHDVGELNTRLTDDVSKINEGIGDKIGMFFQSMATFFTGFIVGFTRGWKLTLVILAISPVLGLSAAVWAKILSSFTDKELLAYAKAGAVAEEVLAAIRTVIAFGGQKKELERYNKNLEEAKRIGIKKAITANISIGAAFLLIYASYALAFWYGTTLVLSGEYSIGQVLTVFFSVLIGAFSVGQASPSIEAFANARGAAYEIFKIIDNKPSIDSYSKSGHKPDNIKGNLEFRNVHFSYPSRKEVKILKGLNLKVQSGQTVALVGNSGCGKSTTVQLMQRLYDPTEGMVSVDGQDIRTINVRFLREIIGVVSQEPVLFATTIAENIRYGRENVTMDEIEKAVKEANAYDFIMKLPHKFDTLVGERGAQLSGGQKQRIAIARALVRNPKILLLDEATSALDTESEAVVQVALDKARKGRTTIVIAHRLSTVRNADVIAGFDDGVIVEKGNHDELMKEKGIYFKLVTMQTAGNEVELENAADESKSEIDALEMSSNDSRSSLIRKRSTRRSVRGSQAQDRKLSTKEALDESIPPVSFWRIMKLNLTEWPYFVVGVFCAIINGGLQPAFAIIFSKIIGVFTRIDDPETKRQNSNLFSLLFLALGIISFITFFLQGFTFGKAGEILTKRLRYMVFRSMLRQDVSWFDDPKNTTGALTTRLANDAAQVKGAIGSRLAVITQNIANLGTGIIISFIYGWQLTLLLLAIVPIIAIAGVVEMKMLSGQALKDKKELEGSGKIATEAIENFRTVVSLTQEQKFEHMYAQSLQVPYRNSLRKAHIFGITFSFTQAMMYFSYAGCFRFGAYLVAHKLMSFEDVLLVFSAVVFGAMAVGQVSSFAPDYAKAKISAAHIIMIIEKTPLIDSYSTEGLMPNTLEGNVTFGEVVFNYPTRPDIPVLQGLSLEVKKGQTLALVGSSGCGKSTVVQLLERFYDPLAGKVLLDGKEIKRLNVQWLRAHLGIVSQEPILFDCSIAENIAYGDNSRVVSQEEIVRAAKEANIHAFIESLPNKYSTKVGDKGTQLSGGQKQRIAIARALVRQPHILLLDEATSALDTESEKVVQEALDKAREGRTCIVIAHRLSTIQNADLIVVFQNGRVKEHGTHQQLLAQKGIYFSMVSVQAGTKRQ

One may read the IC50 as the concentration needed to halve the response being measured. On to `O=C(O)Cc1ccccc1Nc1c(Cl)cccc1Cl` [Diclofenac], for which the IC50 on UGT1A1 is 180 ± 29.6 µM.

In the case of `[Na+].[Na+].[Na+].[O]=[V]([O-])([O-])[O-]` [Na3VO4], the IC50 at P-gp [1] was found to be 3.4 ± 0.32 µM. The term Ki denotes the dissociation constant of the complex between target and ligand, obtained from inhibition or displacement. With `O=c1c(O)c(-c2ccc(O)c(O)c2)oc2cc(O)cc(O)c12` [Quercetin], the Ki in the data set on CYP2C is 1.67 µM. The “median effective doses (ED50), inhibition of NO production” value in data set [2] is 5.5 µM. For the same molecule, the “inhibition of human UGT2B17” value with human UGT2B17 is “inhibits”.

Regarding `COc1cc2c(c(OC)c1OC)-c1c(cc(OC)c(OC)c1OC)C[C@H](C)[C@H](C)C2` [deoxyschizandrin], the “inhibition of UGT1A3 isotype” value with UGT1A3 was “potently inhibit”.

For `COc1cc([C@H]2OC[C@H]3[C@@H]2CO[C@@H]3c2cc(OC)c(O)c(OC)c2)cc(OC)c1O` [syringaresinol], the “inhibitory effects on P-gp” value at P-gp [3] is recorded as “exhibited inhibitory effects”. Besides, the “median effective doses (ED50), inhibition of NO production” value in data set [2] is 10.0 µM. For the molecule schisantherin A, in the data set on UGT1A3, the “inhibition of UGT1A3 isotype” value is given as “potently inhibit”.
